Experimental data as given in patent US8940911B2, “Squarylated lactones inhibitors for bacterial biofilm formation” (Syracuse University, priority 2012, dated 2015).

Test system: E. coli RP437
Experiment: Static biofilm dispersion assay (established biofilm, crystal violet)
Assay type: cell-based, Escherichia coli
Details: established 24 h E. coli RP437 biofilm, 200 μM, further 24 h
Description: Apart from the design and development of molecules that display bacterial biofilm inhibition, perhaps the greater challenge is to construct small molecules that will effectively disperse established biofilm. Generally, treatment of chronic microbial infections is commonly hindered by the presence of established biofilms that offer increased resistance to the entry of antibiotics and prevent their mode of action. In fact, bacteria in the biofilms are known to be greater than 1000-fold resistant to microbicides. […] E. coli RP437 strain was allowed to form biofilms over 24 h in the absence of any inhibitor. […]
An overnight culture of E. coli RP437 grown in LB media (OD600 of 1.0) containing streptomycin (10 μg/mL) was subsequently sub-cultured to an OD600 of 0.03-0.04 (1:100 dilution with LB media). […] Finally, the biofilm formed was quantified by transferring 100 μL of the ethanol solution into a fresh polystyrene microtiter dish that was subsequently read by an absorbance plate reader (A600). After elimination of background absorbance, the percentage dispersion was calculated by dividing the amount of absorbed crystal violet in wells that contained the synthetic compound by the amount of absorbed crystal violet in wells that contained bacteria only (control). […]

Structure (SMILES) | biofilm dispersal ability [%] | biofilm dispersal (in words)
CC1=C(Br)/C(=C/Br)OC1=O [BF8 48, reference compound] | 39 | –
C=Cc1c(NC2CCOC2=O)c(=O)c1=O (centres unmarked) [vinyl-SHL 3] | – | a quarter of biofilm being dispersed
